A word on the melting point: it is the temperature of the solid-liquid transition. Compound `CC12CCC(O)CC1=CCC1C2CCC2(C)C(n3nccn3)=CCC12` (stereo unspecified) registered a melting point of 176 to 177 °C.

In turn, `O=C1OC(=O)c2cnccc21` showed a melting point of 72 to 74 °C.

`O=C(Nc1ccc2[nH]c(C(F)(F)F)nc2c1)C(=O)N1CCC(Cc2ccccc2)CC1`: the melting point stood at 142 °C.

The compound `Nc1ccc(-c2cccc(Cl)c2)cc1C(O)(C1CC1)C1CC1` came in with a melting point of 90 to 92 °C.

For `CCCCC1(C(F)(F)F)NC(=O)Nc2ccc(F)cc21` (racemic), the melting point amounted to 198 °C.

`CC(=O)N1C(C)(C)CC(OC(=O)CC(c2cc(C(C)(C)C)c(O)cc2C)c2cc(C(C)(C)C)c(O)cc2C)CC1(C)C` gave a melting point of 270 °C.

In the case of `CN(C)C(C)(C)c1ccc(-c2nc(Nc3ccc(-n4cncn4)cc3)ncc2C#N)cc1`, the melting point lay within 235 to 237 °C.

In turn, `Fc1ccc(Nc2ncnc3cnc(NC4CCC(N5CCCC5)CC4)nc23)cc1Cl` (stereo unspecified) gave a melting point of 192 to 195 °C.

Compound `O=C(O)Cc1ccc(NC(=O)Nc2ccccc2C(F)(F)F)cc1` displayed a melting point of 224 to 225 °C.

In turn, `CCCCCCCN(Cc1ccc(C(C)(C)C)cc1)C(Nc1ccc(F)cc1F)=C1C(=O)COC1=O` displayed a melting point of 89 to 92 °C.

In turn, `CC(C)(C)OC(=O)Nc1ccc(C#Cc2ccccn2)cc1[N+](=O)[O-]` yielded a melting point of 142 to 144 °C.

`COc1cc(OC)c2c3c(C(N)=O)cccc3n(Cc3ccccc3)c2c1` had a melting point of 240 to 243 °C.

`COc1cc(OC)cc(C2CC=CCC2[N+](=O)[O-])c1` (stereo unspecified) showed a melting point of 73 to 75 °C.

Take `CCOC(=O)N1CCN(c2nc(C)nc3c2OCC(=O)N3)CC1`: the melting point was 197 to 198 °C.

In the case of `CCCCCc1oc(-c2ccc(Cl)cc2)nc1CC(=O)OCC`, the melting point was in the range of 52 to 53 °C.

For the compound `CCOC(=O)c1c(N2CCN(C(=O)c3cccs3)CC2)c2cscc2n(Cc2ccc(F)cc2)c1=O`, the melting point amounted to 227 °C.

As to `COc1ccc(S(=O)(=O)N2CCCC2)cc1`, the melting point was in the range of 88 to 89 °C.

With `CC(Cc1ccc(OCc2cccc(C(F)(F)F)c2)cc1)NC(=O)CC(c1ccccc1)c1ccccc1` (stereo unspecified), the melting point lay within 110 to 113 °C.

Regarding `CNC(=O)Nc1ccc(F)cc1F`, the melting point lay within 182 to 183 °C.

As to `C=C(C)C(=O)c1cc(O)c(O)c([N+](=O)[O-])c1`, the melting point is 98 to 102 °C.

Compound `ON=C(Cc1ccccc1)c1ccccn1` returned a melting point of 151 to 153 °C.

In turn, `CCCCCCCC(=O)Oc1c(OC)c(OC)c(OC(=O)CCCCCCC)c2cc(Cl)ccc12` registered a melting point of 74 to 75 °C.

The compound `N#Cc1cnn2c(C(F)(F)F)cc(-c3cccc(Cl)c3)nc12` showed a melting point of 204 °C.

In turn, `CC(C(=O)O)c1ccc(Oc2ccc(F)cc2F)cc1` (stereo unspecified) returned a melting point of 105 to 106 °C.

In turn, `O=C1OCCC23C(=CC=CC12)C1=C(C=C3c2ccc3c(c2)OCO3)OCO1` (stereo unspecified) had a melting point of 263 to 266 °C.

As to `CC(C)c1sc(-c2nccs2)c2c1C(=O)CC(C)(C)C2`, the melting point lay within 106 to 108 °C.

The compound `CN1C(=O)C(c2cccc(Br)c2)(C2CCN(C(=O)c3ccccc3)CC2)N=C1N` (stereo unspecified) came in with a melting point above 250 °C.

For `CCOC(=O)c1ccc(NC(=O)C=C(c2ccc(OC)cc2)c2ccc(OC)cc2)cc1`, the melting point was 156 to 159 °C.

Compound `O=C(O)c1cc2ccccc2nc1C(=O)O` registered a melting point of 271 to 277 °C.

`CCOC(=O)c1ccc(/C=C/c2ccc3c(c2)C(C)(C)CC3(C)C)cc1`: the melting point was 151 to 152 °C.

`CCc1nc(CCc2cccc(N)c2)sc1C`: the melting point lay in the range of 64 to 65 °C.

With `C#CC1(O)C=CC2C3CCC4=CC(=O)CCC4(C)C3CCC21C` (stereo unspecified), the melting point is 206 °C.

For the compound `COC(=O)c1c(Sc2nc(OC)cc(OC)n2)cccc1C(C)=O`, the melting point lay in the range of 149 to 151 °C.

For `COc1ccc(N2CCN(C(=O)CC3CCc4ccccc43)CC2)cc1` (stereo unspecified), the melting point is 111 to 112 °C.

In turn, `Cc1ccc2c(cc(CCC(=O)O)n2S(=O)(=O)c2ccccc2)n1` registered a melting point of 88 to 92 °C.

`CCc1cn(C2OC(CNC(=O)C(C)Oc3cc(OC)c(Br)cc3Br)C(O)C2F)c(=O)[nH]c1=O` (stereo unspecified) gave a melting point of 223 to 224 °C.

`CCCc1nn(-c2ccc(C(F)(F)F)cn2)cc1CCCOc1ccc(CCC(=O)O)cc1OC` yielded a melting point of 126 to 127 °C.

In turn, `CCOC(=O)c1ccc2nc[nH]c2c1` returned a melting point of 93 to 94 °C.

As to `CN(C)N=Nc1cscc1C(N)=O`, the melting point was 168 to 172 °C.

On to `NC(=O)N(O)Cc1ccc(Cl)s1`, for which the melting point is 138 to 140 °C.

On to `CN(C)CC1CCc2cc(OCc3ccc(NC(=O)c4cc5ccccc5s4)cc3)ccc2C1` (stereo unspecified), for which the melting point is 165 to 169 °C.

Take `CC(=O)CCN(Cc1ccccc1)Cc1ccccc1`: the melting point lay within 58 to 59 °C.

Compound `NC(=O)Cc1cccc(Cn2ccc(OCc3ccc(F)cc3F)c(Br)c2=O)c1` showed a melting point of 164 to 167 °C.

`Cc1nc(-c2c(F)cccc2F)n[nH]1` came in with a melting point of 195 to 198 °C.

`CCc1ccc(-c2ccc(C(C)=S)cc2)cc1` returned a melting point of 84 to 86 °C.

With `CS(=O)(=O)Nc1cc(C(c2cc(C#N)ccc2F)S(=O)(=O)c2ccc(Cl)cc2)c(Cl)cn1` (stereo unspecified), the melting point was 118 to 120 °C.

`CCNC(=O)c1ccc2c(c1)Nc1ccccc1S2` showed a melting point of 150 to 151 °C.

Turning to `Cc1cccc(CC(=S)Nc2ccccc2C(=O)O)c1`, the melting point lay in the range of 148 to 150 °C.

For the compound `CCCCCCCC(=O)Oc1nc2c(N)ncnc2n1Cc1ccccc1`, the melting point was in the range of 248 to 250 °C.

The compound `Clc1cccc2c(CN3CCN(c4ccc5c(c4)OCO5)CC3)n[nH]c12` yielded a melting point of 173 to 174 °C.

For `CC(C)OC(=O)C(C)(C)Oc1ccc(C(=O)c2ccc(O)cc2)cc1`, the melting point amounted to 124 °C.

Compound `O=S(=O)(C(=CNc1cccc(NC=C(S(=O)(=O)c2ccccc2)S(=O)(=O)c2ccccc2)n1)S(=O)(=O)c1ccccc1)c1ccccc1` had a melting point of 299 to 300 °C.

Compound `COC(=O)Nc1cccc(CC(=O)NC(C)(C)C)c1` came in with a melting point of 123 to 124 °C.

As to `Cc1ccc(C(=O)NC/C=C\COc2cc(CN3CCCCC3)ccn2)s1`, the melting point lay within 71 to 73 °C.

In turn, `CNC(=O)NCc1cccc2c1S(=O)(=O)N=C2C1=C(O)C(C(C)(C)C)N(Cc2ccc(F)cc2)C1=O` (stereo unspecified) gave a melting point above 250 °C.

`CN1CC=C(C(=O)N2c3ccccc3NC(=O)c3ccccc32)CC1` had a melting point of 233 to 234 °C.

In turn, `CN(C)CCCOc1ccc(N(C(=O)c2ccc([N+](=O)[O-])cc2)c2ccccc2)cc1` registered a melting point of 89.5 to 92.5 °C.

Consider `CCOC(=O)c1nc(NC)sc1-c1ccccn1`, for which the melting point was 120 to 121 °C.

Turning to `CC(C)c1nc2cc(NC(=O)c3c(C(=O)N4CCCC4)cnn3C)ccn2n1`, the melting point lay within 141 to 143 °C.

On to `O=C1CNCc2cc(-c3ccc(F)cc3)c(C=NO)c3ccn1c23`, for which the melting point is 277 to 279 °C.

The compound `COc1cc(Nc2c(C#N)cnc3cc(C#Cc4ccccn4)ccc23)c(Cl)cc1Cl` returned a melting point of 238 to 240 °C.

For the compound `COc1cccc(C(=CC2CCN(CCCCCCCCc3cccnc3)CC2)c2cccc(OC)c2)c1`, the melting point was in the range of 112 to 115 °C.

Take `O=C(NCCO)/C(=C/c1ccc(Cl)cc1)NC(=O)c1ccc(OCCC2CC2)cc1`: the melting point lay in the range of 143 to 145 °C.

`CCN(CC)C(=O)c1cc(-c2ccccc2)c(=O)n2c1-c1ccccc1C2`: the melting point is 170 to 172 °C.

Regarding `Cc1ccc(C2c3c(C)c(N4Cc5ccccc5C4)c(C)c(C)c3OC2(C)C)cc1` (stereo unspecified), the melting point was in the range of 141 to 143 °C.

`CC(C)n1c(=O)oc2cc(N3C[C@H](C(N)=O)OC3=O)ccc21` gave a melting point of 182 to 184 °C.

Compound `CCCC[C@H](NC(=O)[C@H](CC(C)C)NC(=O)c1c(F)ccc(F)c1F)C(=O)CSCc1ccco1` yielded a melting point of 116 to 117 °C.

For `COc1cccc2c(N(C)c3ccccc3)nc(N(C)c3ccccc3)nc12`, the melting point was 169 to 170 °C.

With `C#CCNc1onc(-c2ccccc2)c1Cl`, the melting point was 83 to 84 °C.

The compound `NC(=O)NC1CCCc2sccc21` (stereo unspecified) yielded a melting point of 203 to 207 °C.

In the case of `CCOC(=O)Cc1c2ccccc2n2c(-c3ccccc3)nccc12`, the melting point was in the range of 59 to 62 °C.

The compound `CCSc1sc(C(=O)N2CCCC2)c2c1C(=O)CC(C)(C)C2` gave a melting point of 129 to 132 °C.

As to `CCC(C)(C)c1ccc(OCCCNC(=O)c2cc(OCCS(=O)(=O)CC)c3ccccc3c2O)c(C(C)(C)CC)c1`, the melting point is 155 to 157 °C.

On to `CCCn1c(=O)cc(N)n(Cc2ccccc2)c1=O`, for which the melting point was 189 to 192 °C.

For the compound `CCOC(=O)C1=C(C)N=C(SCc2ccc(OC)cc2)N(C(=O)OC(C)C)C1c1cccc(Cl)c1Cl` (stereo unspecified), the melting point was in the range of 97 to 99 °C.

With `COc1cc(OC)nc(Cc2ccccc2[N+](=O)[O-])n1`, the melting point fell in the range of 92 to 93 °C.

Take `O=C(O)c1ccc(C2=NOC(c3cc(Cl)cc(Cl)c3)(C(F)(F)F)C2)cc1F` (stereo unspecified): the melting point was in the range of 172 to 174 °C.

`COc1cc(Nc2c(C#N)cnc3cc(-c4cccc(CN5CCN(C)CC5)c4)ccc23)c(Cl)cc1Cl` came in with a melting point of 104 to 106 °C.

The compound `COc1cc2c(=O)n(CCN3CCN(C)CC3)c3c4cc5c(cc4ncc3c2cc1OC)OCO5` yielded a melting point of 244 to 246 °C.

As for `Cc1cnc2cc(-c3cn(C)c4ccccc34)[nH]c2n1`, the melting point was in the range of 170 to 175 °C.

In turn, `COC(=O)C1=C(C)Nc2c(c(-c3ccccc3)nn2-c2ccccc2)C1c1cccc([N+](=O)[O-])c1` (stereo unspecified) came in with a melting point of 186 to 189 °C.

In turn, `O=C(Nc1ccc2ccc(-c3ccccc3)nc2n1)c1cccc(Cl)c1` gave a melting point of 175 °C.

`N#Cc1c(N2CCCCC2)cc(-c2cccs2)c2c1C(=O)c1ccccc1-2` showed a melting point of 226 to 228 °C.

For the compound `CC(c1oc2ccccc2c(=O)c1-c1cccc(F)c1)n1nc(-c2ccc(Cl)c(O)c2)c2c(N)ncnc21` (stereo unspecified), the melting point lay within 134 to 136 °C.

In turn, `NC(=O)c1cnn2c1N(C(=O)CCl)CC=C2c1cccc(C(F)(F)F)c1` showed a melting point of 174 to 176 °C.

Turning to `CC(C)C1(C)N=C(c2nc3scc([N+](=O)[O-])c3cc2C(=O)O)NC1=O` (stereo unspecified), the melting point is 260 °C.
